Paper PMC5735564 (Journal for Immunotherapy of Cancer, 2017)
“Also recorded” adds a separate entry of the source. Read-outs that look alike come from different tables or passages of the source.

What was measured:
Recombinant human Arg2 = target: T1, Recombinant human Arg2 (Homo sapiens, UniProt P78540); assay: Recombinant arginase activity assay (Arg2); type: biochemical; settings: 20 mM L-arginine; N = 2; mean (±SD)
T1 construct: Recombinant human arginase 2 (Arg2) comprising amino acids 23–254 was purchased from US Biological; purchased US Biological (Salem, MA)
T1 sequence (P78540 23-354): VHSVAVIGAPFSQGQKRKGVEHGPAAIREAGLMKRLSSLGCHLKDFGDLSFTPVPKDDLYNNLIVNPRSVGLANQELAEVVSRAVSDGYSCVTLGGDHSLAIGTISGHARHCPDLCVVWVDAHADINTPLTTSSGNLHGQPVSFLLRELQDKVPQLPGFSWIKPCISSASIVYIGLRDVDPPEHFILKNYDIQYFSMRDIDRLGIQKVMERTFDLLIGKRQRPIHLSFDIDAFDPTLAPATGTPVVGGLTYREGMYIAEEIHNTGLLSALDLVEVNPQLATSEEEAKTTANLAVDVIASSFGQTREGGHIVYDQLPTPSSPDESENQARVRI
Experimental: Recombinant human arginase 2 (Arg2) comprising amino acids 23–254 was purchased from US Biological (Salem, MA). […] Activity was determined by a spectrophotometric assay using the QuantiChrom Urea Assay Kit (BioAssay Systems, Hayward, CA) or by quantification of the generation of ^13C(5)-L-ornithine from ^13C(6)-L-arginine using a SCIEX API4000 mass spectrometer (Applied Biosystems, Foster City, CA). Urea produced or ^13C(5)-L-ornithine peak areas were plotted and fitted to a four-parameter equation using GraphPad Prism software (San Diego, CA) to determine IC50 values.

[1] = tested on: intracellular arginase in HepG2 cell line; assay: Native arginase activity in intact HepG2 cells; type: cell-based, human; settings: 10 mM L-arginine; urea in media after 24 h; N = 3; mean (±SD)
Experimental: (§1) Intracellular arginase activity was determined for the arginase-expressing HepG2 and K-562 cell lines as follows. […] The medium was harvested after 24 h and urea generated was determined with the QuantiChrom Urea Assay Kit. Wells containing media without cells were used as background controls.

[2] = tested on: intracellular arginase in K562 cell line; assay: Native arginase activity in intact K-562 cells; type: cell-based, human; settings: 10 mM L-arginine; urea in media after 24 h; N = 2; mean (±SD)
Experimental: as §1

[3] = tested on: human granulocytes co-cultured with autologous T cells; assay: T cell/granulocyte co-culture assay (healthy donor); type: cell-based; settings: for IC50: Homo sapiens, T-cell, granulocytes to T cells 0.25 to 1
Experimental: T cells or NK cells were purified from healthy donor human blood or from murine splenocytes using a negative selection kit for the appropriate cell type and species from Stemcell Technologies. Isolated T cells or NK cells were loaded with carboxyfluorescein succinimidyl ester (CFSE, Thermo Fisher) and stimulated for 72–96 h in complete growth medium containing a minimum of either 50 μM L-arginine (NK cells) or 100 μM L-arginine (T cells). For T cell stimulation, a solution of 10 μg/mL anti-CD3 (human clones UCHT1 or OKT3; murine clone 145-2C11) was used to coat the wells of a 96-well plate and then T cells were stimulated on immobilized anti-CD3 in the presence of 2 μg/mL soluble anti-CD28 (human clone CD28.2; murine clone 37.51). NK cells were stimulated with recombinant IL-2. Proliferation was quantified by analyzing CFSE dilution by flow cytometry (Guava flow cytometer, Millipore, Billerica, MA or Attune NxT flow cytometer, ThermoFisher).
Freshly isolated granulocytes were incubated for 48 h at 37 °C, during which time they spontaneously activate as determined by increased surface expression of CD66b and scatter properties. T cells isolated from the same healthy donor using a pan-T cell isolation kit (Stemcell Technologies) were loaded with CFSE and plated with immobilized anti-CD3 and soluble anti-CD28 in the presence of the aged granulocytes. The cells were co-cultured at several ratios of granulocytes to T cells as indicated in the figure or at a fixed ratio of 4 T cells to 1 granulocyte. […] Granulocytic MDSC (G-MDSC) or granulocytes from cancer patients were isolated from whole blood purchased from Conversant Biologics. G-MDSCs were purified from the PBMC layer of a Ficoll gradient by positive selection for CD66b^+ cells. Granulocytes were purified from the RBC layer of a Ficoll gradient using Hetasep (Stemcell Technologies). […] Cytokines were quantified in the media from T cell co-culture assays using the Cytometric Bead Array kit according to the manufacturer’s instructions (BD Biosciences).

[4] = tested on: granulocytic MDSCs from a lung cancer patient / healthy donor T cells; assay: T cell proliferation in G-MDSC-conditioned media (lung cancer patient); type: cell-based, human
Experimental: Freshly isolated granulocytes were incubated for 48 h at 37 °C, during which time they spontaneously activate as determined by increased surface expression of CD66b and scatter properties. T cells isolated from the same healthy donor using a pan-T cell isolation kit (Stemcell Technologies) were loaded with CFSE and plated with immobilized anti-CD3 and soluble anti-CD28 in the presence of the aged granulocytes. The cells were co-cultured at several ratios of granulocytes to T cells as indicated in the figure or at a fixed ratio of 4 T cells to 1 granulocyte. Co-cultures were incubated for 3–4 days, at which time the medium was analyzed for L-arginine and L-ornithine by mass spectrometry and T cell proliferation was determined by flow cytometry. Granulocytic MDSC (G-MDSC) or granulocytes from cancer patients were isolated from whole blood purchased from Conversant Biologics. G-MDSCs were purified from the PBMC layer of a Ficoll gradient by positive selection for CD66b^+ cells. Granulocytes were purified from the RBC layer of a Ficoll gradient using Hetasep (Stemcell Technologies). Granulocytes and G-MDSCs were characterized by flow cytometry for CD66b expression. […] Cytokines were quantified in the media from T cell co-culture assays using the Cytometric Bead Array kit according to the manufacturer’s instructions (BD Biosciences).

[5] = tested on: granulocytes from a head and neck cancer patient / healthy donor T cells; assay: T cell proliferation in granulocyte-conditioned media (head and neck cancer patient); type: cell-based, human
Experimental: Freshly isolated granulocytes were incubated for 48 h at 37 °C, during which time they spontaneously activate as determined by increased surface expression of CD66b and scatter properties. T cells isolated from the same healthy donor using a pan-T cell isolation kit (Stemcell Technologies) were loaded with CFSE and plated with immobilized anti-CD3 and soluble anti-CD28 in the presence of the aged granulocytes. The cells were co-cultured at several ratios of granulocytes to T cells as indicated in the figure or at a fixed ratio of 4 T cells to 1 granulocyte. Co-cultures were incubated for 3–4 days, at which time the medium was analyzed for L-arginine and L-ornithine by mass spectrometry and T cell proliferation was determined by flow cytometry. Granulocytic MDSC (G-MDSC) or granulocytes from cancer patients were isolated from whole blood purchased from Conversant Biologics. G-MDSCs were purified from the PBMC layer of a Ficoll gradient by positive selection for CD66b^+ cells. Granulocytes were purified from the RBC layer of a Ficoll gradient using Hetasep (Stemcell Technologies). Granulocytes and G-MDSCs were characterized by flow cytometry for CD66b expression. Freshly isolated G-MDSC or granulocytes were incubated in co-culture medium containing 100 μM L-arginine for 48 h, at which time the cells were removed and the G-MDSC- or granulocyte-conditioned media were used for incubating healthy donor CFSE-loaded T cells on immobilized anti-CD3/soluble anti-CD28 for 3–4 days. Cytokines were quantified in the media from T cell co-culture assays using the Cytometric Bead Array kit according to the manufacturer’s instructions (BD Biosciences).

[6] = Pharmacokinetic and pharmacodynamic study in LLC tumor-bearing mice; type: in vivo, mouse; settings: oral dosing, pharmacodynamic effect
LLC tumors [7] = assay: LLC syngeneic tumor model; type: in vivo, mouse
B16 tumors = assay: B16 syngeneic tumor model; type: in vivo, mouse
4T1 tumors = assay: 4T1 orthotopic tumor model; type: in vivo, mouse
LLC tumors [8] = assay: LLC tumors in conditional Arg1 deleted mice; type: in vivo, mouse; settings: 100 mg/kg every 12 h for 14 days, oral
Experimental: Arg1 floxed mice were crossed to the Tie2-Cre deleter strain (The Jackson Laboratory) as previously described. Experimental mice were generated from crossing Arg1 ^Flox/Flox; Tie2-Cre ^+ males with Arg1 ^Flox/Flox; Tie2-Cre ^− females, with Cre negative littermates serving as wild-type controls. […] LLC cells (10^6 per mouse) were injected s.c. in the flank region. […] Mice were euthanized, and tumors excised and weights recorded. Myeloid deletion of Arg1 was confirmed via western blotting of IL-4-stimulated bone marrow-derived macrophages for all animals.

LLC tumors [9] = assay: LLC tumors in SCID mice; type: in vivo, mouse; settings: 100 mg/kg twice daily
CT26 tumors = assay: CT26 syngeneic tumor model
Experimental: Female wild-type C57BL/6 and Balb/c mice (5–6 weeks old) were purchased from Charles River Laboratories (Hollister, CA). Severe combined immune deficient (SCID, B6.CB17-PrkdcSCID/SzJ) and Pmel-1 TCR transgenic (B6.Cg-Thy1a/Cy Tg(TcraTcrb)8Rest/J) mice (5–6 weeks old) were purchased from The Jackson Laboratory (Bar Harbor, ME). All mice were housed and treated in accordance with Institutional Animal Care and Use Committee guidelines. For the 4T1 tumor model, 10^5 cells were injected orthotopically into the mammary fat pad; for all other tumor models, 10^6 cells were injected subcutaneously (s.c.) in the right flank. […] Control groups received vehicle (water) twice daily by gavage. Tumor volume measured by digital caliper (length × width × width/2) and body weight were recorded three times per week. Animals were euthanized when tumors necrotized or volumes reached 2000 mm^3. For the CT26 model, anti-PD-L1 antibody (5 mg/kg, clone 10F.9G2, BioXCell, West Lebanon, NH) was injected intraperitoneally (i.p.) on days 5, 7, 9, 11, 13, and 15. […] Gemcitabine (Selleckchem, Houston, TX) was dosed 50 mg/kg i.p. on days 10 and 16 for the CT26 model, 60 mg/kg i.p. on days 6 and 10 for the LLC model, or 30 mg/kg i.p. on day 5 for the 4T1 model [17, 18]. […] For CD8^+ cell depletion, mice were injected i.p. with anti-CD8 antibody (25 mg/kg, clone 2.43, BioXCell) on days −1, 0, + 5, and +10. For NK cell depletion, mice were injected i.p. with anti-NK1.1 antibody (25 mg/kg, clone PK136, BioXCell) in the LLC and B16 models or with anti-Asialo GM1 sera (20 μL, Wako Chemicals, Richmond, VA) in the CT26 model, per the same schedule as anti-CD8.
Excised tumors were placed on ice in RPMI-1640 medium containing 5% FBS, minced with a razor blade, and dissociated in RPMI-1640 supplemented with mouse tumor dissociation enzymes (Miltenyi Biotec, Bergisch Gladbach, Germany) on a GentleMACS Octo Dissociator With Heat (Miltenyi Biotec) according to the manufacturer’s instructions. Dissociated tumors were strained through 70 μm nylon mesh, washed with cold PBS containing 2% FBS, blocked with anti-CD16/CD32 (Fc block antibody, eBioscience), and stained for cell surface antigens. For B16 and 4T1 tumors, washed dissociated tumor cells were incubated with Dead Cell Removal MicroBeads (Miltenyi Biotec) and applied to a magnetic column prior to staining. For intracellular staining, cells were fixed and permeabilized using buffers purchased from R&D Systems or eBioscience for cytoplasmic or nuclear antigens, respectively. All tumor flow experiments were acquired on an Attune NxT flow cytometer and analyzed with FlowJo software version 10 (Ashland, OR), using fluorescence-minus-one controls for gating and single-stained OneComp eBeads (eBioscience) to set compensation matrices.

tumor growth = tested on: tumor growth; design: method as in PMID 15313928; settings: cited from earlier work
[10] = design: method as in PMID 20219858; settings: nor-NOHA injected over a period of 10 weeks; cited from earlier work
[11] = 100 mg/kg twice daily for 23 days, CT26-inoculated mice
[12] = flow cytometry, study day 14, 100 mg/kg BID
[13] = 100 mg/kg twice daily, depleting antibodies
[14] = flow cytometry, study day 10, 100 mg/kg BID

Molecule `C[C@H](N)C(=O)N1C[C@H](CCCB(O)O)[C@](N)(C(=O)O)C1` [CB-1158] has an IC50 (Recombinant human Arg2) of 296 nM, an IC50 [1] of 32000 nM and an IC50 [2] of 139000 nM. For the same molecule, the IC50 ([3]; Fig. 1d left, read-out: IC50, consumption of L-arginine from the media by granulocytes) was 411 nM, the IC50 ([3]; Fig. 1d right, read-out: IC50, granulocyte-mediated suppression of T cell proliferation) was 204 nM and the “T cell proliferation restored, of the proliferation observed for T cells without granulocytes” value ([3]; co-culture with activated granulocytes) was 90%. For the same molecule, the “arginine depletion from the media” value [4] was “blocked”, the “T cell proliferation restored, of control levels” value ([4]; MDSCs to T cells 1 to 1) was 99% and the “arginine depletion from the media” value ([5]; granulocyte-conditioned media) was “blocked”. The “T cell proliferation restored, of control levels” value ([5]; granulocyte-conditioned media, granulocytes to T cells 0.5 to 1) was 79%, the “secretion of interferon-γ and granzyme-B into the media” value ([5]; media from Fig. 1f, Cytometric Bead Array) was “restored” and the “amount of L-arginine in plasma and tumors” value [6] was “raised”. For the same molecule, the “clinical observations and body weight” value (Tolerability in mice; [11]) was “no significant clinical observations or impact on body weight”, the tolerability (Tolerability in mice; [11]) was “well-tolerated” and the tolerability (Tolerability in mice; twice-daily oral dosing for at least 40 days) was “well-tolerated”. For the same molecule, the “tumor growth, single agent” value (LLC tumors [7]; 100 mg/kg twice daily, oral) was “significantly inhibited”, the “effect of depletion of CD8+ cells on efficacy” value (LLC tumors [7]; 100 mg/kg twice daily, study day 13) was “smaller effect” and the “efficacy after depletion of NK cells” value (LLC tumors [7]; 100 mg/kg twice daily, study day 14) was “loss of efficacy”. The “inflammatory cytokines in tumors vs vehicle” value (LLC tumors [7]; Luminex, 200 mg/kg twice daily for 14 days) was “increases”, the “transcripts of interferon-responsive genes in tumors vs vehicle” value (LLC tumors [7]; Nanostring, 100 mg/kg twice daily for 13 days) was “increases” and the “CD8+ T cells in the tumor vs vehicle” value (LLC tumors [7]; [12]) was “increase”. The “CD68+ macrophages in the tumor vs vehicle” value (LLC tumors [7]; [12]) was “decrease”, the “tumor growth, single agent” value (B16 tumors; 100 mg/kg twice daily, oral) was “significantly inhibited” and the “efficacy after depletion of either CD8+ cells or NK cells” value (B16 tumors; [13]) was “blocked the efficacy”. For the same molecule, the “tumor-infiltrating activated CD8+ CD25+ cytotoxic T cells vs vehicle” value (B16 tumors; flow cytometry, study day 9, 100 mg/kg BID) was “increase”, the “tumor growth, single agent” value (4T1 tumors; 100 mg/kg twice daily, oral) was “significantly inhibited; also recorded: modest effect” and the “CD3+ T cells in the tumor vs vehicle” value (4T1 tumors; [14]) was “increase”. The “NK cells in the tumor vs vehicle” value (4T1 tumors; [14]) was “increase”, the “myeloid cells in the tumor vs vehicle” value (4T1 tumors; [14]) was “decrease” and the “tumor growth in Arg flox/flox; Tie2-Cre+ (ARG1ΔM) mice” value (LLC tumors [8]) was “no further reduction in tumor growth”. For the same molecule, the “efficacy in the SCID background” value (LLC tumors [9]) was “abrogated”, the “tumor growth, single agent” value (CT26 tumors; 100 mg/kg twice daily, oral) was “significantly inhibited” and the “efficacy after depletion of either CD8+ cells or NK cells” value (CT26 tumors; [13]) was “blocked the efficacy”. For the same molecule, the “tumor-infiltrating activated CD8+ CD25+ cytotoxic T cells vs vehicle” value (CT26 tumors; [12]) was “increase”.
For `Nc1ccn([C@@H]2O[C@H](CO)[C@@H](O)C2(F)F)c(=O)n1` [Gemcitabine, gemcitabine, reference compound], the “CD11b+ myeloid cells in the tumors” value (CT26 tumors; flow cytometry, study day 14) was “significant decrease”.
For `N=C(NO)NCC[C@H](N)C(=O)O` [nor-NOHA], the tumor growth (tumor growth; injection of nor-NOHA) is listed as “reduced tumor growth”, the tolerability (tumor growth; multi-day studies in mice) is listed as “well-tolerated” and the tolerability [10] is listed as “well-tolerated”.
